Measured values: US9346769B2, “Tetrazolones as inhibitors of fatty acid synthase” (Infinity Pharmaceuticals, Inc., priority 2010, dated 2016)

biological target: T1, human FASN (Homo sapiens, UniProt P49327); test: FASN NADPH Consumption Assay; type: biochemical; details: human FASN purified from SKBR3 cells; starred symbols
T1 construct: was purified from SKBR3 cells using procedures modified from those in Jayakumar et al; endogenous in cells; host or cells: SKBR3 human breast cancer cells (ATCC); Endogenous enzyme purified by ammonium sulfate precipitation and a mono Q column
T1 sequence (P49327 whole entry): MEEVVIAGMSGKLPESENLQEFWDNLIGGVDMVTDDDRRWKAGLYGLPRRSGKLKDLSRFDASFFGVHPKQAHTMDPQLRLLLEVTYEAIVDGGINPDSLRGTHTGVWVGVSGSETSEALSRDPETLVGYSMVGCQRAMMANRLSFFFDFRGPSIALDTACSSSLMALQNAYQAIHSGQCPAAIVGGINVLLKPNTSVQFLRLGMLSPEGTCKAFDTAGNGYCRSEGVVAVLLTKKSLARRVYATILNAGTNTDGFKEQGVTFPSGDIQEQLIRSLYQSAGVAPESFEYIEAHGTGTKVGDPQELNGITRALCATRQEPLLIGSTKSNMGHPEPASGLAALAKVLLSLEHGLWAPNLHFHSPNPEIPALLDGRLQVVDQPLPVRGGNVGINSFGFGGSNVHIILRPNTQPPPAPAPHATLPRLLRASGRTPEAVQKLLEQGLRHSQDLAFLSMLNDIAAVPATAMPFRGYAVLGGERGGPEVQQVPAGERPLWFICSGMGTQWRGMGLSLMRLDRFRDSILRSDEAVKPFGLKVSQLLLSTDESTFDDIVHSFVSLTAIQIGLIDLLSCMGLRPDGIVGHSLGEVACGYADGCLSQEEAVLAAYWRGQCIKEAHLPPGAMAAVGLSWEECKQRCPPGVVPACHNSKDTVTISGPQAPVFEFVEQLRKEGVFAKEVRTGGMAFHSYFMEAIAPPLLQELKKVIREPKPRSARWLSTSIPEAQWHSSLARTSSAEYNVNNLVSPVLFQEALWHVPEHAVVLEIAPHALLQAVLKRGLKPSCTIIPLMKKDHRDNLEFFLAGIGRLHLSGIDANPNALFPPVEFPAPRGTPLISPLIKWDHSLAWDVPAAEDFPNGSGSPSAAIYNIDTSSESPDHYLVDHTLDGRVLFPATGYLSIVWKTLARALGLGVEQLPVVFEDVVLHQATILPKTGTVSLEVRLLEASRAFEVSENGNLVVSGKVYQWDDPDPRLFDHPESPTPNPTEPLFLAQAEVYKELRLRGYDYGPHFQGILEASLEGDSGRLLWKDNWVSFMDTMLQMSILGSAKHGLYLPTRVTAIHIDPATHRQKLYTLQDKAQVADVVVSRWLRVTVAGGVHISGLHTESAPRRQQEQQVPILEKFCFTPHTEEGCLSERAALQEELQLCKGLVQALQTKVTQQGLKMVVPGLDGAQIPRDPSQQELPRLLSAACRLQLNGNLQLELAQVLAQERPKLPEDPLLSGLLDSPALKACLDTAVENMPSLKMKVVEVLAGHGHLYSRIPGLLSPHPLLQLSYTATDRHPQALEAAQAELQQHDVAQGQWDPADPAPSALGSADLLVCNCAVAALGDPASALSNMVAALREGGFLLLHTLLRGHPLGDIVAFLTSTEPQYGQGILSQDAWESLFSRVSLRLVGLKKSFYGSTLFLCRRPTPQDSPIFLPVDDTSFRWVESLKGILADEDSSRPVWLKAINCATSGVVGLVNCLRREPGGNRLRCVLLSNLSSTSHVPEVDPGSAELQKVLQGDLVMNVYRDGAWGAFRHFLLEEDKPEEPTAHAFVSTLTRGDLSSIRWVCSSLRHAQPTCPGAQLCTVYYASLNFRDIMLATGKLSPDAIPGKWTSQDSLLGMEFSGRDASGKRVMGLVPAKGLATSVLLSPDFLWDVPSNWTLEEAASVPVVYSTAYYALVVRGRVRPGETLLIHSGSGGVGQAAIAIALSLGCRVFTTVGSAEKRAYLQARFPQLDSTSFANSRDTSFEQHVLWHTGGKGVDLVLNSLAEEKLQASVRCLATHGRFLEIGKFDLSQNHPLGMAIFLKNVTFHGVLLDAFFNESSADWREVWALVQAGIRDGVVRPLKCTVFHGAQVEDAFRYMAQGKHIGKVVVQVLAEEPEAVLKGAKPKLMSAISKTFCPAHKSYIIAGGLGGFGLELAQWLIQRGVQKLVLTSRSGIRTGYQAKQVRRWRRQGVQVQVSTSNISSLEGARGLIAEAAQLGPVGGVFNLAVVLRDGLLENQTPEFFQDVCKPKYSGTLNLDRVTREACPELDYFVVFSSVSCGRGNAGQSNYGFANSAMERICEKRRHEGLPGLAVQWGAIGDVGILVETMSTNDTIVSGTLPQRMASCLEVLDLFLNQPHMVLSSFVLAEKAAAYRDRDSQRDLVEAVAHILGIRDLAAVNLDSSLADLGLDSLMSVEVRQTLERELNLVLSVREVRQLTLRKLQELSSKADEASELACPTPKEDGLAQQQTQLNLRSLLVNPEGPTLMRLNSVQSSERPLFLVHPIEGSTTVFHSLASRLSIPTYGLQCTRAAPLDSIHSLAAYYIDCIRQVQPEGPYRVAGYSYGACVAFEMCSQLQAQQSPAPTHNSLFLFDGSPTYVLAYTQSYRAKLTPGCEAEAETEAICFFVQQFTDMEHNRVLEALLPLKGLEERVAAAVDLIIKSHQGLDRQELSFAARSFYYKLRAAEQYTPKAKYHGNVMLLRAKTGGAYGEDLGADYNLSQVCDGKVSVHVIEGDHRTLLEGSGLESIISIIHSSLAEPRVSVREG
Experimental: Human FASN protein (SEQ ID NO. 1) was purified from SKBR3 cells using procedures modified from those in Jayakumar et al. PNAS 1995, 92:8695-8699. SKBR3 cells were obtained from ATCC and grown in DMEM high glucose medium supplemented with 10% FBS, 1 μg/mL bovine pancreas insulin, 100 U/mL penicillin and 100 µg/mL streptomycin. The confluent cells were trypsinized and washed three times with PBS buffer before frozen in liquid N2 and stored at −80° C. Frozen cells were thawed on ice and resuspended in lysis buffer (25 mM Tris-HCl, pH 7.0, 15 mM NaCl, 1 mM EDTA, and 1 mM DTT) with protease inhibitors. The cells were lysed by sonication, and the cell debris was removed by centrifugation at 20,000 rpm for 30 min. To the supernatant, neutralized saturated ammonium sulfate solution was added to a final concentration of 35%. The solution was left on ice for 1 hr, and the precipitated proteins were harvested by centrifugation at 20,000 rpm for 30 min. The proteins were redissolved in lysis buffer without NaCl and loaded on a mono Q column. Bound proteins were eluted with a linear gradient of NaCl in lysis buffer. Each fraction was analyzed by SDS-PAGE and FASN NADPH consumption assay. The fractions containing FASN were pooled and concentrated to 2-3 mg/mL. Glycerol was added to 20%, and the protein was frozen in liquid N2 and stored at −80° C.
All chemicals were purchased from Sigma (St. Louis, Mo.). The procedures of NADPH consumption assay were similar to those described in Cox et al., PNAS 1983, 80:4233-4237. On a 96-well polypropylene microplate, dilution series (typical concentrations 60 nM-1.0 mM) of test compounds were prepared in DMSO, of which 4.0 μL each was transferred to a black polystyrene assay microplate and mixed with 36 μL FASN assay buffer (50 mM potassium phosphate, pH 7.0, 1.0 mM EDTA, 0.01% NP-40) plus 5.0 mM fresh DTT. FASN protein (40 μL 150 nM FASN) was added per well, and the microplate was incubated at 37° C. for 30 min. Enzyme activity measurement was initiated by addition of 20 μL 5× substrate mixture to final concentrations of 60 nM FASN, 2.4 nM-40 μM compound, 0.2 mM NADPH, 50 μM butyryl-CoA, 0.5 mM malonyl-CoA in 100 μL assay buffer plus 5.0 mM DTT and 4.0% DMSO. NADPH consumption was monitored kinetically by fluorescence (λEx=340 nm, λEm=460 nm) on an EnVision 2100 multilabel plate reader (Perkin Elmer, Waltham, Mass.). FASN enzyme activity (slope) in the presence of 4% DMSO was used as maximum control, whereas background (minimum control) was measured by omission of malonyl-CoA in the substrate mixture. Inhibition curves were fitted by a logistic function to yield IC50 values:
Compounds were assayed as inhibitors of human FASN using the above-described FASN Scintillation Proximity Flashplate Assay (IC50; nM) or FASN NADPH Consumption Assay (*) (IC50; nM). The corresponding activity of the isolated compound is also provided along with the measured mass (ES^+).

First: CCN(C(=O)n1nnn(-c2ccccc2OC)c1=O)c1cc(C(=O)O)ccc1OC(C)C
Second: CCCOc1ccc(C(=O)O)cc1N(CC)C(=O)n1nnn(-c2ccccc2OC)c1=O
The IC50 of the first is higher: 1000 to 10000 nM for the first, 250 to 1000 nM for the second.

First: CS(=O)(=O)NCCCN(C(=O)n1nnn(-c2c(Cl)cccc2Cl)c1=O)c1ccc(C(=O)O)cc1
Second: CCN(C(=O)n1nnn(-c2c(Cl)cccc2Cl)c1=O)c1ccc(C(=O)NS(=O)(=O)c2ccccc2)cc1
The IC50 of the first is higher: 1000 to 10000 nM for the first, 60 to 250 nM for the second. The second is the more potent here.

First: CCN(C(=O)n1nnn(-c2ccccc2)c1=O)C1CCCCC1
Second: CCN(C(=O)n1nnn(-c2ccccc2F)c1=O)C1CCCCC1
The IC50 of the first is higher: greater than 10000 nM for the first, 1000 to 10000 nM for the second.

`CCN(C(=O)n1nnn(-c2c(Cl)cccc2Cl)c1=O)C1CCOC(C)(C)C1` (stereo not shown) and `CCN(C(=O)n1nnn(-c2c(Cl)cccc2Cl)c1=O)C1CCCN(C(C)=O)C1` (stereo not shown) fall in the same range of IC50: 1000 to 10000 nM for the first, 1000 to 10000 nM for the second.

`C=CCN(C(=O)n1nnn(-c2ccccc2Oc2ccccc2)c1=O)C1CCN(C(=O)OC(C)(C)C)CC1` and `CCN(C(=O)n1nnn(-c2c(Cl)cccc2Cl)c1=O)C1CCN(C(=O)OC(C)(C)C)CC1` fall in the same range of IC50: 1000 to 10000 nM for the first, 1000 to 10000 nM for the second.

`CCN(C(=O)n1nnn(-c2c(F)cccc2F)c1=O)c1ccc(C#Cc2ccccc2)cc1F` and `CN(C(=O)n1nnn(-c2c(F)cccc2F)c1=O)c1ccc(C#Cc2ccccc2)cc1` fall in the same range of IC50: 60 to 250 nM for the first, 60 to 250 nM for the second.

First: CN(C(=O)n1nnn(-c2ccccc2F)c1=O)c1ccccc1
Second: CN(C(=O)n1nnn(-c2c(F)cccc2F)c1=O)c1ccccc1
The IC50 of the first is higher: 250 to 1000 nM for the first, 60 to 250 nM for the second.

First: CCN(C(=O)n1nnn(-c2c(Cl)cccc2Cl)c1=O)c1cc(C(=O)O)ccc1Cl
Second: CCN(C(=O)n1nnn(-c2c(Cl)cccc2Cl)c1=O)c1ccc(C(=O)O)cc1OC
The IC50 of the first is lower: less than 60 nM for the first, 60 to 250 nM for the second.

Compared with `CCCN(C(=O)n1nnn(-c2c(F)cccc2F)c1=O)c1ccccc1`, `CCN(C(=O)n1nnn(-c2c(F)cccc2F)c1=O)c1ccccc1` is lower in IC50: 60 to 250 nM for the first, less than 60 nM for the second.

`CCN(C(=O)n1nnn(-c2c(F)cccc2F)c1=O)c1ccc(Cl)cc1` and `CCN(C(=O)n1nnn(-c2c(F)cccc2F)c1=O)c1c(F)cccc1Cl` fall in the same range of IC50: 60 to 250 nM for the first, 60 to 250 nM for the second.

`CCN(C(=O)n1nnn(-c2c(F)cccc2C(=O)O)c1=O)c1ccccc1Oc1ccccc1` and `CCN(C(=O)n1nnn(-c2c(F)cccc2F)c1=O)c1ccccc1-c1ccccc1` fall in the same range of IC50: 1000 to 10000 nM for the first, 1000 to 10000 nM for the second.

First: CN(C(=O)n1nnn(-c2ccccc2Cl)c1=O)c1ccccn1
Second: C/C=C(/C)c1ccc(N(C)C(=O)n2nnn(-c3ccccc3Cl)c2=O)cc1
The IC50 of the first is higher: 1000 to 10000 nM for the first, 250 to 1000 nM for the second.

First: CCN(C(=O)n1nnn(-c2c(Cl)cccc2Cl)c1=O)c1ccc([N+](=O)[O-])cc1F
Second: CCN(C(=O)n1nnn(-c2c(F)cccc2F)c1=O)c1ccc([N+](=O)[O-])cc1F
The IC50 of the first is higher: 250 to 1000 nM for the first, 60 to 250 nM for the second.

Compared with `CC(C)(C)OC(=O)C1CCN(C(=O)n2nnn(-c3c(Cl)cccc3Cl)c2=O)CC1`, `O=C(O)C1CCN(C(=O)n2nnn(-c3c(Cl)cccc3Cl)c2=O)CC1` is higher in IC50: 1000 to 10000 nM for the first, greater than 10000 nM for the second. The first is the more potent here.

First: CNC(=O)[C@@H]1CCCN1C(=O)n1nnn(-c2c(Cl)cccc2Cl)c1=O
Second: O=C(N1CCCC2CCCCC21)n1nnn(-c2c(Cl)cccc2Cl)c1=O (stereo not shown)
The IC50 of the first is higher: greater than 10000 nM for the first, 250 to 1000 nM for the second.

`CCN(C(=O)n1nnn(-c2c(Cl)cccc2Cl)c1=O)C1CCC(C(=O)NC)CC1` (stereo not shown) and `CCN(C(=O)n1nnn(-c2c(Cl)cccc2Cl)c1=O)C1CCN(C(C)=O)CC1` fall in the same range of IC50: 1000 to 10000 nM for the first, 1000 to 10000 nM for the second.

First: CCN(C(=O)n1nnn(-c2c(Cl)cccc2Cl)c1=O)c1cccc(C(=O)NS(=O)(=O)c2ccccc2)c1
Second: CCN(C(=O)n1nnn(-c2c(Cl)cccc2Cl)c1=O)c1ccc(C(=O)OCc2ccccc2)c(OC)c1
The IC50 of the first is lower: less than 60 nM for the first, 60 to 250 nM for the second.

First: CCN(C(=O)n1nnn(-c2c(Cl)cccc2Cl)c1=O)C1CCCN(C(=O)OC(C)(C)C)C1 (stereo not shown)
Second: CCN(C(=O)n1nnn(-c2c(Cl)cccc2Cl)c1=O)C1CCC(NC(=O)OC(C)(C)C)CC1 (stereo not shown)
The IC50 of the first is lower: 1000 to 10000 nM for the first, greater than 10000 nM for the second.

First: CCN(C(=O)n1nnn(-c2c(Cl)cccc2Cl)c1=O)c1ccc(C(=O)O)c(OC)c1
Second: COc1ccc(CNC(=O)n2nnn(-c3c(Cl)cccc3Cl)c2=O)c(OC)c1
The IC50 of the first is lower: 60 to 250 nM for the first, greater than 10000 nM for the second. The first is the more potent here.

`CCN(C(=O)n1nnn(-c2c(F)cccc2F)c1=O)c1ccc(C(=O)OCc2ccccc2)cc1` and `CCOC(=O)c1ccc(N(C(=O)n2nnn(-c3c(F)cccc3F)c2=O)N(C)C)cc1` fall in the same range of IC50: 60 to 250 nM for the first, 60 to 250 nM for the second.

First: COc1cccc(F)c1-n1nnn(C(=O)N(c2cccc(C(=O)O)c2)C2CC2)c1=O
Second: COc1ccccc1N(C)C(=O)n1nnn(-c2c(F)cccc2F)c1=O
The IC50 of the first is lower: 60 to 250 nM for the first, 250 to 1000 nM for the second. The first is the more potent here.

`CCN(C(=O)n1nnn(-c2ccccc2SC)c1=O)C1CCCCC1` and `CCN(C(=O)n1nnn(-c2ccccc2OC)c1=O)C1CCCCC1` fall in the same range of IC50: 1000 to 10000 nM for the first, 1000 to 10000 nM for the second.

Compared with `N#CCCN(C(=O)n1nnn(-c2c(Cl)cccc2Cl)c1=O)C1CCCCC1`, `CC(C)(C)OC(=O)NCCN(C(=O)n1nnn(-c2c(Cl)cccc2Cl)c1=O)C1CCCCC1` is higher in IC50: 1000 to 10000 nM for the first, greater than 10000 nM for the second. The first is the more potent here.

First: CCCCOc1ccccc1N(CC)C(=O)n1nnn(-c2c(F)cccc2OC)c1=O
Second: CCN(C(=O)n1nnn(-c2c(F)cccc2F)c1=O)c1ccccc1OC(F)(F)F
The IC50 of the first is higher: 250 to 1000 nM for the first, 60 to 250 nM for the second. The second is the more potent here.

First: CCN(C(=O)n1nnn(-c2ccc(C(F)(F)F)cc2Cl)c1=O)C1CCCCC1
Second: CCCN(C(=O)n1nnn(-c2ccccc2Cl)c1=O)C1CCCCC1
The IC50 of the first is higher: greater than 10000 nM for the first, 1000 to 10000 nM for the second.

First: CN(C(=O)n1nnn(-c2c(F)cccc2F)c1=O)c1cc(F)cc(F)c1
Second: CN(C(=O)n1nnn(-c2c(F)cccc2F)c1=O)c1ccccc1Cl
The IC50 of the first is higher: 60 to 250 nM for the first, less than 60 nM for the second.

`CCN(C(=O)n1nnn(-c2c(C)noc2C)c1=O)C1CCCCC1` and `CCN(C(=O)n1nnn(-c2ccccc2C(C)(C)C)c1=O)C1CCCCC1` cannot be ordered by IC50: greater than 10000 nM for the first, greater than 10000 nM for the second.

First: COC(=O)C1CCc2ccccc2N1C(=O)n1nnn(-c2ccccc2Oc2ccccc2)c1=O (stereo not shown)
Second: COC(=O)C1CCc2ccccc2N1C(=O)n1nnn(-c2c(F)cccc2F)c1=O (stereo not shown)
The IC50 of the first is higher: 250 to 1000 nM for the first, 60 to 250 nM for the second. The second is the more potent here.

First: CN(C(=O)n1nnn(-c2c(F)cccc2F)c1=O)c1ccccc1C(F)(F)F
Second: CCN(C(=O)n1nnn(-c2c(F)cccc2F)c1=O)c1ccccc1[N+](=O)[O-]
The IC50 of the first is higher: 60 to 250 nM for the first, less than 60 nM for the second. The second is the more potent here.

`CCN(C(=O)n1nnn(-c2c(Cl)cccc2Cl)c1=O)C1CCCC(C(=O)N2CCN(C)CC2)C1` (stereo not shown) and `CCN(C(=O)n1nnn(-c2c(Cl)cccc2Cl)c1=O)C1CCC(C(=O)NC(C(N)=O)c2ccccc2)CC1` (stereo not shown) fall in the same range of IC50: 1000 to 10000 nM for the first, 1000 to 10000 nM for the second.

First: CN(C(=O)n1nnn(-c2ccccc2Cl)c1=O)C1CCCCC1
Second: O=C(N(O)C1CCCCC1)n1nnn(-c2c(F)cccc2F)c1=O
The IC50 of the first is higher: 1000 to 10000 nM for the first, 60 to 250 nM for the second.

First: CC(C)N(C(=O)n1nnn(-c2c(F)cccc2F)c1=O)c1ccccc1
Second: CC(C)N(C(=O)n1nnn(-c2c(Cl)cccc2Cl)c1=O)c1ccccc1
The IC50 of the first is lower: 60 to 250 nM for the first, 250 to 1000 nM for the second. The first is the more potent here.

`O=C(N(c1ccccc1)c1ccccc1)n1nnn(-c2c(F)cccc2F)c1=O` and `CCN(C(=O)n1nnn(-c2c(F)cccc2CCc2ccccc2C)c1=O)c1ccccc1` fall in the same range of IC50: 60 to 250 nM for the first, 60 to 250 nM for the second.

`CCCCC#Cc1ccc(N(CC)C(=O)n2nnn(-c3c(F)cccc3F)c2=O)c(F)c1` and `COc1ccc2c(c1)CCCN2C(=O)n1nnn(-c2c(F)cccc2F)c1=O` fall in the same range of IC50: 60 to 250 nM for the first, 60 to 250 nM for the second.

First: O=C(N1CCCC2CCCCC21)n1nnn(-c2c(F)cccc2F)c1=O (stereo not shown)
Second: O=C(N1CCCC2CCCCC21)n1nnn(-c2ccccc2Oc2ccccc2)c1=O (stereo not shown)
The IC50 of the first is lower: 60 to 250 nM for the first, 250 to 1000 nM for the second.

Compared with `CCN(C(=O)n1nnn(-c2ccccc2OC)c1=O)c1ccc(C(=O)O)cc1OC`, `CCCCCCN(C(=O)n1nnn(-c2ccccc2OC)c1=O)c1cc(C(=O)O)ccc1OC` is higher in IC50: 60 to 250 nM for the first, 250 to 1000 nM for the second.

For `CC(C)(C)OC(=O)N[C@@H]1CCN(C(=O)n2nnn(-c3c(Cl)cccc3Cl)c2=O)C1`, the IC50 was 1000 to 10000 nM.
